According to patent US20230125667A1, “NOVEL TDZD ANALOGS AS AGENTS THAT DELAY, PREVENT, OR REVERSE AGE-ASSOCIATED DISEASES AND AS ANTI-CANCER AND ANTILEUKEMIC AGENTS” (United States Government as represented by the Department …, priority 2020, published 2023):
Entries after “also recorded” stand apart in the source; their conditions may differ.

Key:
C. elegans strain AM141 = experiment: Q40::YFP aggregates in C. elegans strain AM141; format: in vivo
Method: Several TDZD-conjugated drugs (putative GSK-3 inhibitors) were evaluated for their ability to reduce accumulation of protein aggregates, and for protection against aggregation-associated end-points in the following model systems: (i.) SH-SY5Y-APPSw, a neuroblastoma cell line expressing the Swedish mutation of Amyloid Precursor Protein (APPSw), and thus predisposed to form β-amyloid deposits; (ii.) C. elegans strain CL4176, a model of Alzheimer-like amyloidopathy that can be induced to express human Aβ1-42 in muscle, or may express it at a lower level without induction; (iii.) C. elegans strain AM141, a model of Huntington-like polyglutamine aggregation that constitutively expresses Q40::YFP (a tract of 40 glutamines fused in-frame to yellow fluorescent protein) in muscle cells and forms aggregates progressively with adult aging. The TDZD analog PNR-962 (a putative GSK-3 inhibitor) and other related compounds (not shown) were protective in all aggregation assays.
Fresh agar plates supporting bacterial lawns, which serve as food for C. elegans, were prepared at least 1 day ahead of use. C. elegans AM141 (forming Q40::YFP aggregates in muscle, progressively in early adulthood) were placed on these 100-mm plates. Day-4 adult worms were lysed with alkaline hypochlorite solution to obtain eggs from worms, a procedure that permits synchronization of worms in a cohort. Eggs were placed on plates spotted with different concentrations of TDZD analogues after allowing the compounds to be evenly distributed on the plates (˜1 hour after adding drugs to plates). Vehicle-only (DMSO) controls are included in each experiment, as a baseline for drug effects in experimental groups. Young-adult AM141 (day-3 adults) were transferred on alternate days onto fresh plates that contained the same doses of compounds, with fresh E. coli to prevent starvation of worms. Equal samples (n=25) were randomly picked from experimental groups and control group for microscopic imaging. Using an in-house plugin for ImageJ software (NIH), several images of AM141 were processed for aggregate count per worm. The fluorescence intensity of each aggregate (indicating the size/content of protein aggregates) was also measured. Each drug treatment was repeated multiple times to validate the results.

wild-type nematodes = experiment: Lifespan of C. elegans; format: in vivo; details: FIG. 8
Method: It was previously shown that several interventions that improve age-associated phenotypes also modulate lifespan (Ayyadevara et al. (2017) Antioxid Redox Signal. 27(17): 1383-1396; Ayyadevara et al. (2005) Aging Cell. 4(5): 257-271). The lifespan was assessed in C. elegans, either mock-treated or exposed to TDZD analogues. PNR-962 and BSK-179 extended the lifespan of wild-type nematodes to an identical degree, increasing the mean by roughly 25-30% (P<0.001; FIG. 8).
To obtain synchronized eggs for lifespan studies, worms were maintained for 2 generations, free of contamination and starvation. Healthy, well-fed adult worms from the 2nd generation were then lysed, and eggs placed on plates with appropriate doses of TDZD analogue PNR962, or DMSO vehicle alone (for a final concentration of 0.02% v/v DMSO). At the L4 larval stage, worms were transferred daily to fresh plates for 7 days, and thereafter on alternate days until all the worms are dead. C. elegans that moved spontaneously or responded to gentle prodding were scored as alive. For the mortality computation, worms that were lost for reasons other than natural death were censored. The methods described were adopted from previously described experimental procedures (Ayyadevara, et al. (2016) PIP3-binding proteins promote age-dependent protein aggregation and limit survival in C. elegans. Oncotarget, 7(31): 48870-48886; Bharill, et al. (2013) Extreme Depletion of PIP3 Accompanies the Increased Life Span and Stress Tolerance of PI3K-null C. elegans Mutants. Frontiers in Genetics, 4).

Q: For `O=c1sn(CCI)c(=O)n1Cc1ccccc1` [PNR-962], which “number of Q40::YFP aggregates” value (C. elegans strain AM141; 5-μM, 3 days of exposure (FIG. 6)) is on record?
A: reduces huntingtin-like aggregates; also recorded: reduced the number of aggregates significantly

Q: And the “number of aggregation foci” value (C. elegans strain AM141; C. elegans model of Huntington's Disease (FIG. 7))?
A: decreases

Q: And the “aggregate intensity (content of Q40-YFP)” value (C. elegans strain AM141; not shown)?
A: reduced aggregate intensity

Q: What about the lifespan (wild-type nematodes) of the same compound?
A: increased
